{"source": "paper PMC12037858", "about": "(Scientific Reports, 2025)", "biological_target": "Fascin (Homo sapiens, UniProt Q16658)", "test": "Image-based F-actin bundling assay", "format": "biochemical", "conditions": "400 µM compound"}
{"compound": "O=C(Nc1ccncc1)c1cn(Cc2ccc(Cl)c(Cl)c2)c(=O)c2cnn(C3CCNCC3)c12", "note": "[BDP-13176]", "values": [{"measurement": "Inhibition of fascin-mediated F-actin bundle formation", "value": "prevents fiber formation"}]}
